Measured values reported in US8546433B2, “Axl inhibitors for use in combination therapy for preventing, treating or managing metastatic cancer” (Rigel Pharmaceuticals, Inc., priority 2009, dated 2013).

What was measured:
4T1 tumor cells [1] = experiment: Mouse 4T1 breast tumor model: Compound A in preventing lung and liver metastasis of a primary breast tumor (Biological Example 1); type: in vivo, BALB/c mice; conditions: 21 days; for effect on the number of large lung metastases, difference to vehicle: FIG. 3; for effect on the incidence of liver micrometastases, difference to Cisplatin at 1.2 mg/kg / effect on the incidence of liver micrometastases, difference to vehicle: FIG. 4; for effect on the number of medium lung metastases, difference to vehicle: FIG. 2
Protocol: Protocol Eighty-eight BALB/c mice were inoculated with 5×10^5 4T1 tumor cells (ATCC) orthotoically into the third mammary fat pad. On Day 0 of the study (2 days post-inoculation), 80 mice were randomized into 8 groups (10 mice per group). Dose administration began on Day 0 and continued for 21 days (3 weeks). Compound A was administered twice a day, Cisplatin was administered once a week, and Zometa was administered three times weekly. Tumor measurements were performed three times per week, starting when tumors were palpable (approximately 3×3 mm). Body weight measurements were taken three times per week at the same time each day. Tumor and body weight measurements fall all mice were measured prior to dose administration. On Day 21 of the treatment, mice were euthanized and the lungs exposed and the numbers of surface lung metastases were counted. The size of each metastasis was measured using a caliper in one dimenstion and categorized as follows: Small: Less than 2 mm Medium: Greater or equal to 2 mm Large: Greater or equal to 3 mm The lungs and livers from all mice were excised and placed in PLP fixative and stained for micrometastasis quantification.

4T1 tumor cells [2] = experiment: Mouse 4T1 breast tumor model: Compound A in combination with Cisplatin in preventing lung and liver metastasis (Biological Example 2); type: in vivo, BALB/c mice; conditions: 21 days, FIG. 7
Protocol: Using a variation of the mouse 4T1 breast tumor model, as described in Current Protocols in Immunology (2000), 20.2.1-20.2.16, Compound A in combination with Cisplatin was assayed to determine the efficacy of the combination therapy to prevent, treat or manage metastatic cancer in BALB/c mice.
• Vehicle: 0.5% HPMC/0.1% Tween. • Compound A: Preformulated dosing solutions in vehicle for 7 mg/kg and 21 mg/kg for oral administration. • Cisplatin: Diluted in sterile saline for 1.2 mg/kg (suboptimal clinical formulation) for intravenous administration. Protocol
Sixty-six BALB/c mice were inoculated with 5×10^5 4T1 tumor cells (ATCC) orthotoically into the third mammary fat pad. On Day 0 of the study (2 days post-inoculation), 60 mice were randomized into 6 groups (10 mice per group). Dose administration began on Day 0 and continued for 21 days (3 weeks). Compound A was administered twice a day, Cisplatin was administered once a week, and Zometa was administered three times weekly. Tumor measurements were performed three times per week, starting when tumors were palpable (approximately 3×3 mm). Body weight measurements were taken three times per week at the same time each day. Tumor and body weight measurements fall all mice were measured prior to dose administration.
On Day 21 of the treatment, mice were euthanized and the lungs exposed and the number of surface lung metastases were counted. The size of each metastasis was measured using a caliper in one dimenstion and categorized as follows:
Medium: Greater or equal to 2 mm
Large: Greater or equal to 3 mm
The lungs and livers from all mice were excised and placed in PLP fixative and stained for micrometastasis quantification.

[3] = Cisplatin 1.2 mg/kg intravenous once a week, p<0.05, Mann-Whitney Test
[4] = Cisplatin 2.4 mg/kg intravenous once a week, p<0.05, Mann-Whitney Test
[5] = Compound A 25 mg/kg oral twice a day, p<0.05, Mann-Whitney Test
[6] = Compound A 45 mg/kg oral twice a day, p<0.05, Mann-Whitney Test

N.N.[Cl][Pt][Cl] [Cisplatin, cis-diamminedichloridoplatinum(II), reference compound]
significant: effect on the number of large lung metastases, difference to vehicle (4T1 tumor cells [1]; [3]) | effect on the number of large lung metastases, difference to vehicle (4T1 tumor cells [1]; [4]) | effect on the incidence of liver micrometastases, difference to Cisplatin at 1.2 mg/kg (4T1 tumor cells [1]; [4]) | effect on the incidence of liver micrometastases, difference to Cisplatin at 1.2 mg/kg (4T1 tumor cells [1]; Cisplatin 4 mg/kg intravenous once a week, p<0.05, Mann-Whitney Test) | effect on the number of medium lung metastases, difference to vehicle (4T1 tumor cells [1]; cisplatin 4 mg/kg intravenous once a week, p<0.001, Mann-Whitney Test) | effect on reducing the number of large lung metastases, difference to vehicle (4T1 tumor cells [2]; [3])

Nc1nc(Nc2ccc3c(c2)CC[C@@H](N2CCCC2)CC3)nn1-c1cc2c(nn1)-c1ccccc1CCC2 [Compound A, 1-(6,7-dihydro-5H-benzo[6,7]cyclohepta[1,2-c]pyridazin-3-yl)-N^3-((7-(S)-pyrrolidin-1-yl)-6,7,8,9-tetrahydro-5H-benzo[7]annulene-2-yl)-1H-1,2,4-triazole-3,5-diamine]
significant: effect on the number of large lung metastases, difference to vehicle (4T1 tumor cells [1]; [5]) | effect on the incidence of liver micrometastases, difference to vehicle (4T1 tumor cells [1]; [5]) | effect on the number of medium lung metastases, difference to vehicle (4T1 tumor cells [1]; [6]) | effect on the incidence of liver micrometastases, difference to vehicle (4T1 tumor cells [1]; [6]) | effect on the incidence of liver micrometastases, difference to vehicle (4T1 tumor cells [1]; Compound A 75 mg/kg oral twice a day, p<0.05, Mann-Whitney Test) | effect on reducing the number of large lung metastases, difference to vehicle (4T1 tumor cells [2]; Compound A 7 mg/kg oral twice a day, p<0.01, Mann-Whitney Test) | effect on reducing the number of large lung metastases, difference to vehicle (4T1 tumor cells [2]; Compound A 21 mg/kg oral twice a day, p<0.01, Mann-Whitney Test)

O=P(O)(O)C(O)(Cn1ccnc1)P(=O)(O)O [Zometa, reference compound]
significant: effect on the incidence of liver micrometastases, difference to vehicle (4T1 tumor cells [1]; Zometa 0.1 mg/kg subcutaneous three times weekly, p<0.05, Mann-Whitney Test)
